The record followed here is PubChem BioAssay (NCI).

Several values for one entry are separate records, joined by “and”; a condition that tells them apart may be missing. Identical values can stand only once.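 Interpolation was linear, between the two tested concentrations surrounding the appropriate level; five concentrations were tested over 48 hours in 96-well plates. The concentration for 50% growth inhibition is given as GI50. Definition used: TGI = concentration required for complete inhibition of growth.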 Bounds are passed on as bounds.

Holding throughout (test): growth of human tumour cells (NCI), 48 h
Test [1] has as its system LXFL 529 NSCLC.
Test [2] has as its system KM20L2 colon.
Test [3] concerns RXF-631 renal.
Test [4] relates to BT-549 breast.
For test [5], the system named is MCF7 breast.
Test [6] concerns MDA-N.
The subject of test [7] is PC-3 prostate.
Test [8] relates to T-47D breast.
For test [9], the system named is NCI/ADR-RES ovarian.

With `O=S(=O)(C1=CC(S(=O)(=O)c2ccccc2)COC1)c1ccccc1` (stereo not drawn), in test [1], the TGI is greater than 100 µM.
In the case of `CCCCCCCCSC(=O)NCCCC`, the TGI in [2] is 62.5 µM; in [1], greater than 100 µM; in test [3], greater than 100 µM.
Turning to `C/C(=C1/N=C(c2cc([N+](=O)[O-])ccc2Cl)N(c2ccc(Br)cc2)C1=O)c1ccc(N(CCC#N)CCC#N)cc1C`, the TGI in test [2], in test [1] and in [3] was greater than 100 µM throughout.
`Cc1ccccc1/C=C/c1csnn1`: the TGI in [2], in [1] and in test [3] was greater than 100 µM throughout.
Consider `Cc1noc2cccc(O)c12`, for which the TGI in [2] and in test [1] was greater than 100 µM throughout.
Regarding `COC(=O)C(=O)C(CC(=O)Nc1cc(Cl)ccc1Cl)C(=O)OC` (stereo not drawn), the TGI in test [2] and in [1] was greater than 100 µM in each case.
Turning to `CC[C@@]1(O)C(=O)OCc2c1cc1n(c2=O)Cc2cc3cc(Cl)ccc3nc2-1`, the GI50 is 0.0562 µM in [4]; 0.00997 µM and 0.0271 µM in [2]; 0.108 µM in test [1]; 0.00364 µM in test [5]; 0.0286 µM in test [6]; 0.0427 µM in [7]. Also, the GI50 in test [8] is 0.00335 µM. Moreover, the TGI is 2.44 µM in test [4]; 0.144 µM and 0.461 µM in test [2]; 2.22 µM in [1]; 0.374 µM in test [6]; 0.167 µM in test [8].
For the compound `CC12Nc3ccccc3C1=C(c1ccccc1)CC1C(=O)OC(=O)C12` (stereo not drawn), the TGI in test [2], in [1] and in test [3] was greater than 100 µM throughout.
On to `Nc1cn(C2OC(CC(c3ccccc3)(c3ccccc3)c3ccccc3)C(O)C2O)c(=O)[nH]c1=O` (stereo not drawn), for which the TGI in test [2] was 42.1 µM; in test [1] it was 91.8 µM; in test [3] it was greater than 100 µM.
For the compound `C=C1CCC2CC1C(C(=O)c1c[nH]c3ccccc13)=NC2(C)C` (stereo not drawn), the TGI in test [4], in test [5], in [6], in [9], in [7] and in test [8] was greater than 100 µM throughout.
With `NC(CCSCC(F)(F)F)C(=O)O` (stereo not drawn), the TGI in test [2] and in test [1] was greater than 100 µM in each case.
For the compound `COc1cccc(/C=N/[N-]C(=O)c2ccncc2)c1[O-].[Mn+2].[OH3+]`, in [2], the GI50 is 4.51 µM and the TGI was greater than 100 µM. For the same compound, in test [1], the GI50 is 15.3 µM and the TGI was greater than 100 µM.
For `C[N+]1=C(c2cccnc2/C=N/O)OCC1(C)C`, the TGI in [2] and in test [1] was greater than 100 µM each time.
On to `CC(=O)Nc1ccccc1-c1nc2ccccc2nc1-c1ccccc1`, for which the TGI in [2] and in [1] was greater than 100 µM throughout.
Regarding `COC(=O)c1cc(-c2ccc3ccccc3c2)[nH]c(=O)c1C#N`, the TGI in test [4], in test [5], in test [6], in test [9], in test [7] and in test [8] was greater than 100 µM throughout.
For the compound `Cc1cccc(C(C)(C)C)c1NC(=O)C(C#N)C1=C(Cl)C(=O)c2ccccc2C1=O` (stereo not drawn), the TGI turned out to be 27.5 µM in test [4]; 38.4 µM in test [2]; 29.2 µM in test [1]; 32.9 µM in test [5]; 27.4 µM in test [6]; 37.7 µM in test [9]. Further, the TGI in test [7] stood at 26.3 µM; in test [8], 26.1 µM.
`OCC1NC(COC2OC(CO)C(O)C(O)C2O)C(O)C(O)C1O` (stereo not drawn): the TGI in test [4], in test [5], in [6], in test [9], in test [7] and in test [8] was greater than 100 µM each time.
`O=C(Nc1cccc(C(F)(F)F)c1)C(=O)C(C(=O)c1ccc(Cl)c(Cl)c1)C1OC(=O)c2ccccc21` (stereo not drawn): the TGI in test [2], in test [1] and in test [3] was greater than 100 µM each time.
Regarding `c1ccc2c(c1)[nH]c1cnc3c4ncccc4[nH]c3c12`, the TGI in [2] and in test [1] was greater than 100 µM in each case.
For `O/N=C1/CCCC/C1=C/C=C/c1ccccc1`, the TGI in test [2] is 33.3 µM; in test [1] it was greater than 100 µM.
As to `CCOC(=O)c1oc2c(OC)ccc3c2c1CCC3`, the TGI in test [2], in [1] and in test [3] was greater than 100 µM in each case.
With `O=C(CCC(=O)Nc1ccccc1C(F)(F)F)N/N=C1\C(=N\NC(=O)CCC(=O)Nc2ccccc2C(F)(F)F)C(c2ccc3c(c2)OCO3)Oc2ccccc21` (stereo not drawn), the TGI in test [2] and in test [3] was greater than 100 µM in each case.
As for `CC(=O)NNc1nc(C)c(C(=O)NNC(=O)C(=O)Nc2ccc(Cl)c([N+](=O)[O-])c2)s1`, the TGI in test [2] and in test [1] was greater than 100 µM each time.
For the compound `C/C(NNC(=O)c1ccccc1O)=C1\C=Nc2ccccc2S1`, the TGI in test [2] and in test [1] was greater than 100 µM in each case.
The compound `Cc1ccc2nc(NC(=O)C(=O)C(C(=O)c3ccc4ccccc4c3)C3OC(=O)c4ccccc43)sc2c1` (stereo not drawn) returned a TGI in test [1] of 19.2 µM.
In the case of `O=C1c2c(O)cccc2C(C(=O)CCCCCC(=O)C2c3cccc(O)c3C(=O)c3c(O)cccc32)c2cccc(O)c21`, the GI50 in test [2] is 15.4 µM; in test [1], 7.58 µM; in test [3] it was 2.99 µM. For the same compound, the TGI was 13.1 µM and 47.6 µM in test [2]; 2.78 µM and 14.2 µM in test [1]; 7.98 µM and 13.6 µM in [3].
As for `Oc1ccc2ccccc2c1CCc1c(O)ccc2ccccc12`, the TGI in test [5] stood at 26.3 µM; in test [6], 27.6 µM; in test [9] it was 31.1 µM; in [7] it was 26.9 µM; in test [8] it was 12.5 µM.
As for `NCCOc1ccc(/C(=C(/Cl)c2ccccc2)c2ccccc2)cc1`, the figures for the TGI in test [2], in test [1] and in test [3] were 19.9 µM, 20 µM and 26.3 µM, respectively.
Take `C[C@H]1CCC/C=C/C2CC(OC(=O)CN(C)C)CC2C(OC(=O)CN(C)C)/C=C/C(=O)O1` (stereo partly drawn): the GI50 in test [4] is 0.459 µM; in test [2], 0.266 µM; in [1], 0.417 µM; in test [5], 0.31 µM; in [6] it was 0.427 µM; in [7], 0.261 µM. For the same compound, the TGI was 74.9 µM in test [4]; 0.979 µM in [2]; 8.4 µM in test [1]; 1.53 µM in [5]; greater than 100 µM in [6]; greater than 100 µM in test [7].
As to `CC(Oc1cc2oc(=O)cc(-c3ccccc3)c2cc1Cl)C(=O)O` (stereo not drawn), the TGI in [2], in test [1] and in test [3] was greater than 100 µM throughout.
Regarding `O=C(CCc1nc(=S)[nH][nH]1)Nc1cc(Cl)ccc1Cl`, the TGI in test [2], in [1] and in [3] was greater than 100 µM throughout.
As for `C#CCN(N=O)C(=O)NC(CCCCNC(=O)OCc1ccccc1)C(=O)OCc1ccccc1` (stereo not drawn), the TGI in [2] was greater than 100 µM; in test [1], 31.7 µM.
For `COC(=O)C(C(=O)C(=O)Nc1ccc(C)cc1)c1nc2ccc([N+](=O)[O-])cc2[nH]c1=O` (stereo not drawn), in that order: greater than 100 µM and greater than 100 µM.
On to `O=C(O)C1C2C=CC(O2)C1C(=O)NCc1cccnc1` (stereo not drawn), for which the TGI in [4], in test [5], in test [6], in test [9], in [7] and in test [8] was greater than 100 µM in each case.
For the compound `O=C1OC(CC(=O)c2ccc(F)cc2)C(Cl)=C1Cl` (stereo not drawn), the TGI in test [1] turned out to be 31.9 µM.
`NC(Cc1ccccc1)C(=O)OCN1C(=O)C2C3C=CC(C2C1=O)C1C2C(=O)N(COC(=O)C(N)Cc4ccccc4)C(=O)C2C31` (stereo not drawn): the TGI in test [2] was 67.2 µM and 51.5 µM; in [1] it was 39.7 µM and 37.9 µM.
Turning to `C[C@@H](Nc1nc(N[C@H](C)C(F)(F)F)nc(-c2cccc(Cl)n2)n1)C(F)(F)F`, the GI50 in [4] is 37.9 µM; in test [5] it was 50.6 µM; in [9], 32.9 µM; in test [7], 45.4 µM; in [8], 41.8 µM. The TGI in [4], in test [5], in test [9], in [7] and in test [8] was greater than 100 µM each time.
In turn, `CCc1cccc(C(C)C)c1NC(=O)CC1Sc2ccccc2NC1=O` (stereo not drawn) registered a TGI in test [1] greater than 100 µM.
Consider `O=C(NC1CCN(Cc2ccccc2)CC1)c1cc(-c2cccnc2)nc2ccc(Cl)cc12`, for which the GI50 in test [4] was 24.8 µM; in [5], 4.78 µM; in [9] it was 15.6 µM; in test [7], 6.16 µM; in test [8], 3.7 µM. The TGI in test [4] is greater than 100 µM; in test [5], greater than 100 µM; in test [9] it was greater than 100 µM; in test [7] it was greater than 100 µM; in test [8], 53.1 µM.
On to `Cc1cc(F)c(C(=O)Nc2cccc(-c3nncn3C(C)C)n2)cc1-n1cnc(C2CC2)c1`, for which the GI50 was 11.7 µM in test [4]; 9.48 µM in test [5]; 17.7 µM in [9]; 16.6 µM in test [7]; 2.01 µM in test [8]. For the same compound, the TGI in test [4] is 54.8 µM; in test [5] it was 55.2 µM; in [9], 93.2 µM; in test [7], 92.4 µM; in [8], 9.95 µM.
With `CNC(=O)c1cc(Oc2ccc3nc(NC(=O)Nc4ccc(CN5CCOCC5)c(C(F)(F)F)c4)sc3c2)ccn1`, the GI50 in [4] was 3.02 µM; in test [5], 1.75 µM; in test [9], 2.07 µM; in test [7], 2.04 µM; in test [8], 1.53 µM. In addition, the TGI in test [4] stood at 9.18 µM; in [5], 4.63 µM; in [9], 5.37 µM; in [7] it was 6.22 µM; in [8], 6.82 µM.
`CCCCCC/C=C/C#CCCCCCCCC(=O)O`: the TGI in [4], in test [5], in test [6], in test [9], in test [7] and in test [8] was greater than 100 µM each time.
The compound `C/C(=N\Nc1ccccc1)c1sc(-c2nc(C)c(/C(C)=N/Nc3ccccc3)s2)nc1C` yielded a TGI in test [1] greater than 82 µM.
On to `O/N=C1/CCC/C1=C\c1ccccc1`, for which the TGI in test [2] and in test [1] was greater than 100 µM in each case.
Turning to `CC1(C)OB(c2ccc(N(CCOS(C)(=O)=O)CCOS(C)(=O)=O)cc2)OC1(C)C`, the GI50 in test [4] is 17.6 µM; in test [5], 17.8 µM; in test [9], 15.8 µM; in test [7] it was 15.6 µM; in test [8], 18.1 µM. Moreover, the TGI was 41 µM in test [4]; greater than 83.8 µM in test [5]; 65.2 µM in test [9]; greater than 79.7 µM in test [7]; greater than 100 µM in test [8].
`C[C@@H](C1CC[C@H]2[C@@H]3[C@@H]4O[C@@H]4[C@@]4(O)CC=CC(=O)[C@]4(C)[C@H]3C[C@H](O)[C@]12C)[C@H]1C[C@]2(C)O[C@]2(C)C(=O)O1` (stereo partly drawn): the TGI in test [5], in test [6], in test [9], in test [7] and in test [8] was greater than 100 µM each time.
Regarding `CCCCCCCCCCC(=O)CCCCCCC(=O)O`, the results for the TGI in [1] and in test [3] were 40.1 µM and 43.3 µM, respectively.
Consider `COc1ccc2[nH]c(Cl)c(/C=C3/C(=O)Nc4ccccc43)c2c1`, for which the GI50 in test [4] is 0.185 µM; in test [5], 0.79 µM; in [9], 0.715 µM; in [7], 0.676 µM; in test [8] it was 5.4 µM. Moreover, the TGI in test [4] was 0.523 µM; in test [5], greater than 38.5 µM; in test [9] it was 3.38 µM; in [7], 6.84 µM; in test [8], 84.5 µM.
As to `O=C1/C(=C/c2cccnc2)SC(=S)N1Cc1ccco1`, the TGI in [4] is greater than 100 µM; in test [5], greater than 100 µM; in test [6], 6.29 µM; in test [9], greater than 100 µM; in test [7], greater than 36.6 µM; in test [8], 64.6 µM.
